Data reported in the supplement of paper PMC11061612.

Experiments:
[1] = system: TUR (Acute Myeloid Leukemia); test: combination Emax (second highest fraction inhibited in the dose matrix, 72 h); higher = more inhibition; extreme values may be limits of the assay
Outline: (§1)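 Cell lines in DMEM/F12 or RPMI with 10% FBS were plated in 1536-well plates, held 24 hours at 37°C, 5% CO2, then given two-drug dose matrices for 72 hours (DMSO typically 0.2%). Viability was read by CellTiter-Glo 2.0 luminescence and scaled as inhibition from 0 (vehicle wells) to 1 (blank wells). Combination Emax is the second-highest inhibition in the matrix; Bliss excess is observed combination effect minus expected EA + EB − EA·EB, EA and EB being single-agent effects.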

[2] = system: IA-LM (Non-Small Cell Lung Carcinoma); test: as above
Outline: as §1

[3] = system: NCI-H1341 (Small Cell Lung Carcinoma); test: as above
Outline: as §1

[4] = system: LS-1034 (Colorectal Carcinoma); test: Bliss excess, mean over the matrix (fraction); higher = more synergy
Outline: as §1

[5] = system: BxPC-3 (Pancreatic Carcinoma); test: as above
Outline: as §1

[6] = system: NCI-H1963 (Small Cell Lung Carcinoma); test: as above
Outline: as §1

[7] = system: SCC-4 (Oral Cavity Carcinoma); test: as above
Outline: as §1

[8] = system: P32-ISH (Burkitt's Lymphoma); test: as above
Outline: as §1

GAK (Melanoma) = test: as above
Outline: as §1

[9] = system: SiHa (Cervical Carcinoma); test: as above
Outline: as §1

[10] = system: SNU-407 (Colorectal Carcinoma); test: as above
Outline: as §1

[11] = system: MM1S (Plasma Cell Myeloma); test: as above
Outline: as §1

[12] = system: NAMALWA (Burkitt's Lymphoma); test: as above
Outline: as §1

[13] = system: NMC-G1 (Low Grade Glioma); test: as above
Outline: as §1

[14] = system: RCC-JW (Kidney Carcinoma); test: as above
Outline: as §1

[15] = system: MOLP-8 (Plasma Cell Myeloma); test: as above
Outline: as §1

[16] = system: COR-L88 (Small Cell Lung Carcinoma); test: as above
Outline: as §1

[17] = system: P30-OHK (B-Lymphoblastic Leukemia); test: as above
Outline: as §1

[18] = system: ZR-75-30 (Breast Carcinoma); test: as above
Outline: as §1

[19] = system: OAW-28 (Ovarian Carcinoma); test: as above
Outline: as §1
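Throughout, for Bliss excess, mean over the matrix: after 72 h of two-drug dosing.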

SMILES	combination Emax [1]	combination Emax [2]	combination Emax [3]	Bliss excess [4]	Bliss excess [5]	Bliss excess [6]	Bliss excess [7]	Bliss excess [8]	Bliss excess (GAK (Melanoma))	Bliss excess [9]	Bliss excess [10]	Bliss excess [11]	Bliss excess [12]	Bliss excess [13]	Bliss excess [14]	Bliss excess [15]	Bliss excess [16]	Bliss excess [17]	Bliss excess [18]	Bliss excess [19]
CN(CCO)CC[C@H](CSc1ccccc1)Nc1ccc(S(=O)(=O)NC(=O)c2ccc(N3CCC([C@@H](O)c4ccccc4-c4ccc(Cl)cc4)CC3)cc2)cc1S(=O)(=O)C(F)(F)F [AZD4320] + CCN(CCO)CCCOc1ccc2c(Nc3cc(CC(=O)Nc4cccc(F)c4)[nH]n3)ncnc2c1 [AZD2811] (first compound max 1 µM, 7x7, partner max 1 µM)	0.255	0.505	1	-0.0337	-0.0001	0.0054	0.0936	-0.0231	-0.0032	-0.0219	-0.102	0.118	0.0873	0.0047	-0.0023	0.0283	0.0591	0.045	-0.0024	0.0773
CN(CCO)CC[C@H](CSc1ccccc1)Nc1ccc(S(=O)(=O)NC(=O)c2ccc(N3CCC([C@@H](O)c4ccccc4-c4ccc(Cl)cc4)CC3)cc2)cc1S(=O)(=O)C(F)(F)F [AZD4320] + CN(C)CCCOc1ccc(-c2ccc3ncc4c(c3c2)n(C2CCOCC2)c(=O)n4C)cn1 [AZD0156] (first compound max 1 µM, 7x7, partner max 1 µM)	0.118	0.432	0.974	-0.0386	-0.0239	0.0708	-0.0341	0.0018	-0.0381	-0.0537	-0.0555	0.0753	0.0125	-0.0362	-0.0301	0.0233	-0.0161	0.0275	-0.038	-0.0218
CN(CCO)CC[C@H](CSc1ccccc1)Nc1ccc(S(=O)(=O)NC(=O)c2ccc(N3CCC([C@@H](O)c4ccccc4-c4ccc(Cl)cc4)CC3)cc2)cc1S(=O)(=O)C(F)(F)F [AZD4320] + C[C@@H]1COCCN1C2=NC(=NC(=C2)C3(CC3)[S@](=N)(=O)C)C4=C5C=CNC5=NC=C4 [AZD6738] (first compound max 1 µM, 7x7, partner max 10 µM)	0.971	0.715	1	-0.037	0.0373	0.0129	-0.0961	-0.0092	0.0029	-0.0492	-0.0568	-0.0008	0.0006	-0.0724	-0.0862	0.0086	0.0079	0.0653	-0.0601	0.0382
CN(CCO)CC[C@H](CSc1ccccc1)Nc1ccc(S(=O)(=O)NC(=O)c2ccc(N3CCC([C@@H](O)c4ccccc4-c4ccc(Cl)cc4)CC3)cc2)cc1S(=O)(=O)C(F)(F)F [AZD4320] + C[C@@H](Nc1cc(F)cc(F)c1)c1cc(C(=O)N(C)C)cc2c(=O)cc(N3CCOCC3)oc12 [AZD8186] (first compound max 1 µM, 7x7, partner max 3 µM)	0.19	0.617	0.99	-0.0026	0.0345	0.0841	-0.0437	0.0526	-0.0727	-0.0165	-0.0167	0.0538	0.0041	0.0254	0.0478	0.0576	0.008	0.0647	-0.0251	0.0055
CN(CCO)CC[C@H](CSc1ccccc1)Nc1ccc(S(=O)(=O)NC(=O)c2ccc(N3CCC([C@@H](O)c4ccccc4-c4ccc(Cl)cc4)CC3)cc2)cc1S(=O)(=O)C(F)(F)F [AZD4320] + Cc1cc2ncnn2cc1Nc1ncc2c(n1)n(C1CCOCC1)c(=O)n2C [AZD7648] (first compound max 1 µM, 7x7, partner max 10 µM)	0.242	0.488	0.999	-0.0403	-0.024	0.0483	-0.0568	0.0076	0.0066	-0.0385	0.0313	0.0657	0.0013	-0.0452	-0.0476	-0.0125	0.0052	0.0216	-0.0359	-0.0348
CN(CCO)CC[C@H](CSc1ccccc1)Nc1ccc(S(=O)(=O)NC(=O)c2ccc(N3CCC([C@@H](O)c4ccccc4-c4ccc(Cl)cc4)CC3)cc2)cc1S(=O)(=O)C(F)(F)F [AZD4320] + Cn1cnc2c(F)c(Nc3ccc(Br)cc3Cl)c(C(=O)NOCCO)cc21 [Selumetinib] (first compound max 1 µM, 7x7, partner max 3 µM)	0.161	0.744	0.99	-0.0454	0.0749	0.0204	0.054	0.044	0.0028	-0.0315	-0.0231	0.0799	0.0105	-0.0624	-0.0079	0.0614	0.121	0.0291	-0.06	0.0927
Cc1c2c(nn1C)CSCc1cc(n(C)n1)CSc1cc(c3ccccc3c1)OCCCc1c(C(=O)O)n(C)c3c-2c(Cl)ccc13 [AZD5991] + C=CCn1c(=O)c2cnc(Nc3ccc(N4CCN(C)CC4)cc3)nc2n1-c1cccc(C(C)(C)O)n1 [AZD1775] (first compound max 1 µM, partner max 1 µM)	0.965	0.265	0.832	-0.098	-0.0125	0.0006	0.0917	-0.0228	-0.0077	-0.0646	-0.0183	0.0547	0.0017	-0.0012	0.0418	-0.0041	-0.0463	0.0077	0.0376	0.0049
Cc1c2c(nn1C)CSCc1cc(n(C)n1)CSc1cc(c3ccccc3c1)OCCCc1c(C(=O)O)n(C)c3c-2c(Cl)ccc13 [AZD5991] + CC1(C)CCC(CN2CCN(c3ccc(C(=O)NS(=O)(=O)c4ccc(NCC5CCOCC5)c([N+](=O)[O-])c4)c(Oc4cnc5[nH]ccc5c4)c3)CC2)=C(c2ccc(Cl)cc2)C1 [Venetoclax] (first compound max 1 µM, 7x7, partner max 1 µM)	0.637	0.317	0.634	-0.0159	0.0411	0.119	-0.0365	0.0054	0.0208	-0.129	0.0014	0.0483	-0.0172	-0.03	-0.0335	0.0174	0.136	0.285	0.0527	0.13
Cc1c2c(nn1C)CSCc1cc(n(C)n1)CSc1cc(c3ccccc3c1)OCCCc1c(C(=O)O)n(C)c3c-2c(Cl)ccc13 [AZD5991] + CN(C)CCCOc1ccc(-c2ccc3ncc4c(c3c2)n(C2CCOCC2)c(=O)n4C)cn1 [AZD0156] (first compound max 1 µM, 7x7, partner max 1 µM)	0.477	0.257	0.379	-0.0032	0.0229	0.0225	-0.0232	0.0083	0.0152	0.0341	-0.463	0.0391	-0.0079	-0.0387	-0.0001	0.0086	-0.0129	-0.0042	-0.0128	0.0335
Cc1c2c(nn1C)CSCc1cc(n(C)n1)CSc1cc(c3ccccc3c1)OCCCc1c(C(=O)O)n(C)c3c-2c(Cl)ccc13 [AZD5991] + C[C@@H]1COCCN1C2=NC(=NC(=C2)C3(CC3)[S@](=N)(=O)C)C4=C5C=CNC5=NC=C4 [AZD6738] (first compound max 1 µM, 7x7, partner max 10 µM)	0.99	0.389	0.71	-0.0346	-0.01	0.0858	-0.0003	0.0231	0.0034	0.0122	0.0148	0.102	-0.0012	0.0188	0.0192	0.0254	0.0555	0.0592	0.0285	0.0799
Cc1c2c(nn1C)CSCc1cc(n(C)n1)CSc1cc(c3ccccc3c1)OCCCc1c(C(=O)O)n(C)c3c-2c(Cl)ccc13 [AZD5991] + C[C@@H](Nc1cc(F)cc(F)c1)c1cc(C(=O)N(C)C)cc2c(=O)cc(N3CCOCC3)oc12 [AZD8186] (first compound max 1 µM, 7x7, partner max 3 µM)	0.391	0.201	0.706	-0.0142	-0.0059	0.0155	0.0116	0.0273	0.0257	0.0044	-0.0139	0.0187	0.0021	-0.059	0.0126	0.0039	-0.0524	0.0058	0.0179	0.0538
Cc1c2c(nn1C)CSCc1cc(n(C)n1)CSc1cc(c3ccccc3c1)OCCCc1c(C(=O)O)n(C)c3c-2c(Cl)ccc13 [AZD5991] + Cc1cc2ncnn2cc1Nc1ncc2c(n1)n(C1CCOCC1)c(=O)n2C [AZD7648] (first compound max 1 µM, 7x7, partner max 10 µM)	0.557	0.295	0.509	0.0092	-0.0007	-0.0169	-0.0269	0.0465	-0.021	-0.0234	-0.0369	0.0085	-0.0286	-0.0606	-0.0349	0.0192	-0.0006	-0.0222	-0.0134	0.0125
Cc1c2c(nn1C)CSCc1cc(n(C)n1)CSc1cc(c3ccccc3c1)OCCCc1c(C(=O)O)n(C)c3c-2c(Cl)ccc13 [AZD5991] + Cn1cnc2c(F)c(Nc3ccc(Br)cc3Cl)c(C(=O)NOCCO)cc21 [Selumetinib] (first compound max 1 µM, 7x7, partner max 3 µM)	0.629	0.24	0.496	0.0513	0.0457	0.0518	0.0478	0.0025	-0.0093	0.0015	0.0342	0.0828	-0.0172	-0.0243	-0.0319	0.0291	-0.0114	0.0011	-0.0609	0.089
